Source: US20190119282A1, “IMIDAZOPYRIDAZINES USEFUL AS INHIBITORS OF THE PAR-2 SIGNALING PATHWAY” (Vertex Pharmaceuticals Incorporated, priority 2013, published 2019)

Assays:
[1] = molecular target: T1, PAR2 (HT-29 cells, SLIGKV activation) (Homo sapiens, UniProt P55085); test: Ca FLIPR TETRA assay, ANTAGONIST mode, stimulation with 8 μM SLIGKV; format: cell-based; settings: HT-29 cells, antagonist mode, stimulation with 8 μM SLIGKV
T1 construct: host or cells: HT-29 cells
T1 sequence (P55085 26-397): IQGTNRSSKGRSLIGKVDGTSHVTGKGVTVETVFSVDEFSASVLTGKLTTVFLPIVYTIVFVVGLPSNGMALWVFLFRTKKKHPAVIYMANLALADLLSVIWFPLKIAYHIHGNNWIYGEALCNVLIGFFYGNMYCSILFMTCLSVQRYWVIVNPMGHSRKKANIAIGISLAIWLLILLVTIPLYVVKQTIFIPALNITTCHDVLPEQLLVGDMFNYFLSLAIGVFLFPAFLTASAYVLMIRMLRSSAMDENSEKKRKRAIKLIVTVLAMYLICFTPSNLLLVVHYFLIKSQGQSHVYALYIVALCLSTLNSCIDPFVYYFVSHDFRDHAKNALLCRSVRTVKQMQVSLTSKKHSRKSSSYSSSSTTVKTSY
Outline: (§1)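 Antagonist-mode FLIPR Tetra Ca2+ readout: after 30 min r.t. compound pre-incubation, HT-29 cells are challenged with trypsin (3.1 U/mL final), SLIGKV (8 μM), thrombin (1 U/mL) or UTP (0.6 μM). Cells were plated overnight in 1% FBS medium and dye-loaded with Calcium 5; an initial read checks compound agonism.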

[2] = tested on: UTP-stimulated Ca2+ response in HT-29 cells; test: Ca FLIPR TETRA assay, ANTAGONIST mode, stimulation with 0.6 μM UTP; format: cell-based, human; settings: Homo sapiens; HT-29 cells, antagonist mode, stimulation with 0.6 μM UTP
Outline: as §1

[3] = tested on: Thrombin-stimulated Ca2+ response in HT-29 cells; test: Ca FLIPR TETRA assay, ANTAGONIST mode, stimulation with 1 U/mL Thrombin; format: cell-based, human; settings: Homo sapiens; HT-29 cells, antagonist mode, stimulation with 1 U/mL Thrombin
Outline: as §1

[4] = molecular target: T2, PAR2 (HT-29 cells, trypsin activation) (Homo sapiens, UniProt P55085); test: Ca FLIPR TETRA assay, ANTAGONIST mode, stimulation with 3.1 U/mL trypsin; format: cell-based; settings: HT-29 cells, antagonist mode, stimulation with 3.1 U/mL trypsin
T2 construct: host or cells: HT-29 cells
T2 sequence (P55085 26-397): T1 sequence (P55085 26-397)
Outline: as §1

CC(C)(C)c1cc(-c2ccc(F)cc2)nn2cc(C(=O)N3CCN(c4cc[nH]n4)C(=O)C3(C)C)nc12 [Compound I-471]
IC50 [1]: 0.8 nM
IC50 [2]: > 1000 nM
IC50 [3]: 905 nM
IC50 [4]: 1.6 nM

CC(C)(C)c1cc(-c2ccc(F)cc2F)nn2cc(C(=O)N3CCNC(=O)C3(C)C)nc12 [Compound I-472]
IC50 [1]: 6.2 nM
IC50 [2]: 820 nM
IC50 [3]: > 1000 nM
IC50 [4]: 13 nM

CC(C)(C)c1cc(-c2ccccc2F)nn2cc(C(=O)N3CCNC(=O)C3(C)C)nc12 [Compound I-473]
IC50 [1]: 15 nM
IC50 [2]: 390 nM
IC50 [3]: 475 nM
IC50 [4]: 25.5 nM

CC(C)(C)c1cc(C2CCC(F)(F)CC2)nn2cc(C(=O)N3CCN(c4cc[nH]n4)C(=O)C3(C)C)nc12 [Compound I-474]
IC50 [1]: 2.4 nM
IC50 [2]: > 1000 nM
IC50 [3]: > 1000 nM
IC50 [4]: 20 nM

Cc1n[nH]c(C(=O)N2CCN(C(=O)c3cn4nc(-c5ccc(F)cc5)cc(C(C)C)c4n3)C(C)(C)C2)n1 [Compound I-475]
IC50 [1]: 3.8 nM
IC50 [2]: 13700 nM
IC50 [3]: 10300 nM
IC50 [4]: 7.1 nM

CC(C)c1cc(-c2ccc(F)c(C3CC3)c2)nn2cc(C(=O)N3CCNC(=O)C3(C)C)nc12 [Compound I-476]
IC50 [1]: 660 nM
IC50 [2]: > 1000 nM
IC50 [3]: > 1000 nM
IC50 [4]: 965 nM

CC(C)c1cc(-c2ccc(F)cc2F)nn2cc(C(=O)N3CCNC(=O)C3(C)C)nc12 [Compound I-477]
IC50 [1]: 43 nM
IC50 [2]: > 1000 nM
IC50 [3]: > 1000 nM
IC50 [4]: 93 nM

CC(C)c1cc(-c2ccccc2F)nn2cc(C(=O)N3CCNC(=O)C3(C)C)nc12 [Compound I-479]
IC50 [1]: 155 nM
IC50 [2]: > 1000 nM
IC50 [3]: > 1000 nM
IC50 [4]: 250 nM

CC(C)c1cc(-c2cccc(F)c2)nn2cc(C(=O)N3CCNC(=O)C3(C)C)nc12 [Compound I-480]
IC50 [1]: 20 nM
IC50 [2]: > 1000 nM
IC50 [3]: > 1000 nM
IC50 [4]: 60 nM

Cc1nc(C(=O)N2CCN(C(=O)c3cn4nc(-c5ccc(F)cc5)cc(C(C)(C)C)c4n3)C(C)(C)C2)n(COP(=O)(O)O)n1 [Compound I-481]
IC50 [1]: 47.2 nM
IC50 [2]: > 1000 nM
IC50 [3]: > 1000 nM
IC50 [4]: 44.5 nM

CC(C)c1cc(-c2ccc(F)c(Cl)c2)nn2cc(C(=O)N3CCN(C(=O)[C@H]4C[C@@](C)(O)C4)CC3(C)C)nc12 [Compound I-482]
IC50 [1]: 2.7 nM
IC50 [2]: 6350 nM
IC50 [3]: 2700 nM
IC50 [4]: 2.7 nM

Cc1nc(C(=O)N2CCN(C(=O)c3cn4nc(-c5ccc(F)c(Cl)c5)cc(C(C)C)c4n3)C(C)(C)C2)n[nH]1 [Compound I-483]
IC50 [1]: 2.5 nM
IC50 [2]: 6800 nM
IC50 [3]: 6900 nM
IC50 [4]: 4.3 nM

Cc1nc(C(=O)N2CCN(C(=O)c3cn4nc(-c5ccc(F)cc5)cc(C(C)(C)C)c4n3)C(C)(C)C2)nn1COP(=O)(O)O [Compound I-485]
IC50 [1]: 97 nM
IC50 [2]: > 1000 nM
IC50 [3]: > 1000 nM
IC50 [4]: 235 nM

CC(C)(C)c1cc(-c2ccc(F)c(Cl)c2)nn2cc(C(=O)N3CCN(C(=O)C4CC(C(=O)O)C4)CC3(C)C)nc12 (centres unmarked) [Compound I-486]
IC50 [1]: 1.7 nM
IC50 [2]: 2180 nM
IC50 [3]: 4150 nM
IC50 [4]: 2.1 nM

CC(C)(C)c1cc(-c2ccc(F)c(Cl)c2)nn2cc(C(=O)N3CCN(C(=O)[C@H]4CC[C@@H](C(=O)O)CC4)CC3(C)C)nc12 [Compound I-487]
IC50 [1]: 0.3 nM
IC50 [2]: > 1000 nM
IC50 [3]: > 1000 nM
IC50 [4]: 0.3 nM

CC(C)(C)c1cc(-c2ccc(F)c(Cl)c2)nn2cc(C(=O)N3CCN(C(=O)[C@H]4CC[C@H](C(=O)O)CC4)CC3(C)C)nc12 [Compound I-488]
IC50 [1]: 4.2 nM
IC50 [2]: > 1000 nM
IC50 [3]: > 1000 nM
IC50 [4]: 4.2 nM

CC(C)(C)c1cc(-c2ccc(Cl)cc2)nn2cc(C(=O)N3CCN(C(=O)C4CC(C(=O)O)C4)CC3(C)C)nc12 (centres unmarked) [Compound I-489]
IC50 [1]: 1 nM
IC50 [2]: 4100 nM
IC50 [3]: 8600 nM
IC50 [4]: 0.9 nM
